Patent US20160361257A1, “COMPOSITION FOR INCREASING TESTOSTERONE LEVELS AND ENHANCING LIBIDO” (priority 2015, published 2016)

Assays:
[1] = half-life when delivered sublingually or transmucosally; conditions: in vivo
Description: 7-methoxyflavone is an aromatase inhibitor. Aromatase inhibitors work by inhibiting the action of the enzyme aromatase, which converts androgens into estrogens by a process called aromatization. 7-methoxyflavone is a compound having poor bioavailability of about 5% when ingested. According to an embodiment of the present invention, from about 5 mg to 50 mg, and preferably from about 20 mg to 30 mg of 7-methoxyflavone may be included in the formulations and dosage forms of the present invention, when delivered sublingually or transmucosally. […] According to an embodiment, the 7-methoxyflavone may be from a plant extract. 7-methoxyflavone has been found in Meliaceae and Rutaceae plants. According to an embodiment, the 7-methoxyflavone may therefore be from an extract containing at least 90% 7-methoxyflavone, standardized. Preferably, extract contains at least […] 7-methoxyflavone, standardized.
According to an embodiment of the present invention, from about 5 mg to 50 mg, and preferably from about 20 mg to 30 mg of 7,8-benzoflavone may be included in the formulations and dosage forms of the present invention, when delivered sublingually or transmucosally. According to an embodiment, the half-life of 7,8-benzoflavone is about 1-2h when delivered sublingually or transmucosally.

[2] = humans; prior art U.S. Pat. No. 5,880,117; cited from earlier work

SMILES | half-life [1] | period over which concentration declines after the peak [2] | time to peak concentration after administration [2]
O=c1cc(-c2ccccc2)oc2c1ccc1ccccc12 [7,8-benzoflavone, 2-phenyl-benzo(h)chromen-4-one] | 1 to 2 h | – | –
COc1ccc2c(=O)cc(-c3ccccc3)oc2c1 [7-methoxyflavone] | 8 to 12 h | – | –
C[C@]12CC[C@H]3[C@@H](CCC4=C[C@@H](O)CC[C@@]43C)[C@@H]1CC[C@@H]2O [4-androstene-3β, 17β-diol] | – | 3 to 4 h | ≤ 90 min
